Measurements: US20060281807A1, “Quassinoid compositions for the treatment of cancer and other proliferative diseases” (Tapestry Pharmaceuticals, Inc., priority 2005, published 2006)
Where “and” joins values, the source holds several entries; their conditions need not be identical. Equal values may be shown once.

Tests used:
[1] = tested on: HCT116 (human colorectal carcinoma); assay: Disk diffusion assay, zone of inhibition, HCT116; assay type: cell-based; conditions: 1 mg/mL
Method: (§1) A disk diffusion assay was performed to define the differential cell killing ability of 15-O-(3′-hydroxy-3′-isopropyl-4′-methylpentanoyl)bruceolide. Seven cell types were assayed: L1210 (ATCC CCL-219) (murine leukemia), CCRF-CEM (ATCC CCL-119) (human leukemia), Colon 38 (murine colon adenocarcinoma), HCT116 (ATCC CCL-247) (human colorectal carcinoma), H125 (human lung carcinoma). The murine and human granulocyte/macrophage progenitor cell line (CFU-GM), served as controls.
(§2) Colon 38 cells (about 1 gram) were cut into small fragments in 15 mL of Hank's Balanced Salt Solution (HBSS) over a 100-mesh sieve and gently forced through by the scissors with HBSS constantly perfusing the sieve. The resulting material was then drawn into and out of a 5 mL syringe without a needle to further disperse the cell clumps. The cell solution was diluted and plated in 0.3% agarose in DMEM plus 10% heat-inactivated Bovine Calf Serum (BCS). For plating of all of the cell types (except controls), the 60 mm plates were first prepared with a hard agar bottom layer (0.6% agar in RPMI-1640 plus 15% BCS).
(§3) HCT116 and H125 cells were maintained in cell culture, and were removed from culture by a trypsin-collagenase-DNAase cocktail. The plating efficiencies of each cell type was sufficiently high that 30,000 cells in 3 mL produced the desired number of colonies (i.e., over 10,000 per plate) in 60 mm plates. This soft agar top layer (0.3% with the serum and media as above) plus the titrated tumor cells were poured into the plates and allowed to solidify.
(§4) A 15 μl sample of each compound was dropped onto a 6.5 mm disk (Baxter filter disks). The disks were allowed to dry overnight and then placed close to the edge of a petri dish. Depending upon the cell type, the dishes were incubated for 7 to 10 days, and examined by an inverted stereo-microscope (10×) for measurement of the zone of inhibition. The zone of inhibition was measured from the edge of the filter disk to the beginning of normal-sized colony formation. The diameter of the filter disk, 6.5 mm, was arbitrarily taken as a zone of 200 units. Compounds that were selective for killing solid tumors, as compared to leukemia or normal cells (“solid tumor selective”) were defined as those compounds which produced a difference in zones between solid tumor cells and either normal or leukemia cells of at least 250 units. The results of this analysis are set forth in Table 4, which illustrates the relative diameters of the zones of inhibition by various drugs on the growth of the respective cell types at various drug dilutions.

L1210 (murine leukemia) = assay: Disk diffusion assay, zone of inhibition, L1210; assay type: cell-based; conditions: 1 mg/mL
Method: as §1, §2, §4

[2] = Maximum tolerated dose in mice; conditions: for MTD / MTD at 30 days: mouse, in vivo, iv
Method: Formulations containing 15-O-(3′-hydroxy-3′-isopropyl-4′-methylpentanoyl)bruceolide, 15-(3-isopropyl-4-methyl-2-pentenoyl)-bruceolide, and, for comparative purposes, bruceantin, or peninsularinone were prepared by solubilizing each compound in up to 100 mg/mL of ethanol. These solutions were diluted 1:1 with a stabilizer (Cremophor/propylene glycol). The solutions were then diluted in saline (1:10 minimum).
The maximum tolerated dose (MTD) was determined by a two-stage experiment. In the first stage, between 1 and 10 mg/mL of the formulation was prepared as described above. Next, 0.25 mL of the formulation was injected intravenously into one 20 gram mouse (0.75 mg/mouse). If the animal died within 30 days of injection, a series of subsequent 2-fold dilutions were administered to individual mice until an MTD was defined. […] The second stage of the study involved increasing the number of mice per dose to four, and retesting four dilutions that bracket the MTD from the individual mouse study. The four dilutions were the MTD, a dosage twice the MTD, a dosage ½ the MTD, and a dosage ¼ the MTD.

[3] = Pharmacokinetics, plasma and tumor concentration by HPLC in HCT-116 tumor-bearing SCID mice; assay type: in vivo; conditions: for concentration in plasma / concentration in tumor: 2.25 mg/mouse intravenously
Method: Samples from HCT-116 tumor-bearing SCID mice were analyzed via high performance liquid chromatography (HPLC) following administration of inventive compositions. […] At different time points following administration of the inventive compounds (up to 24 hours), individual mice were killed and both blood and tumor samples were removed for HPLC analysis.
In particular, a Waters 2690 Separation Module (Waters Corp., Milford, Mass.) connected to a Waters 2487 Dual wavelength absorbance detector controlled by Millennium32 v3.20 was used for separation, detection, data acquisition, integration and quantitation. An external standard calibration method was used to quantify the inventive compounds in each sample. A Symmetry Shield RP18 5 μm ([…]) analytical column (Waters Corp., Milford, Mass.) was used in the separation of each inventive compound. The column temperature was maintained at 30° C. 25 μl of each sample was injected per analytical run.
The mobile phase consisted of 99% water/1% acetonitrile as the initial gradient composition for the inventive composition. A gradient analysis from deionized water to acetonitrile at a flow rate of 1 mL/min for each tested compound is set forth in Tables 9 and 10. The detection wavelength for the inventive composition was 278 nm, and the retention time was 7.8 minutes.
For the in vivo pharmacokinetic trial, 15 mice were inoculated bilaterally and subcutaneously in the inguinal area with 10^7 tumor cells (by a 16-gauge needle), such as HCT-116 cells or trocar-implanted Colon 38 cells. Each of the compounds 15-O-(3′-hydroxy-3′-isopropyl-4′-methylpentanoyl)bruceolide and 15-(3-isopropyl-4-methyl-2-pentenoyl)-bruceolide was administered intravenously at the MTD in 0.25 mL via the tail vein. Each compound was administered to 10 animals when the tumors reached a measurable size (i.e., 80 to 300 mm^3) at a dose determined from the MTD study. The remaining five animals served as time-point controls. At prescribed times thereafter, one animal per time point was sacrificed, and blood and bilateral tumors were harvested for analysis of drug concentrations. Specifically, mice were sacrificed for pharmacological analysis at 1, 5, 15, 30, 60, 120, 240, 360 minutes and 12 and 24 hours following administration of the inventive compounds.

[4] = tested on: H125 (human lung carcinoma); assay: Disk diffusion assay, zone of inhibition, H125; assay type: cell-based; conditions: 1 mg/mL
Method: as §1, §2, §3, §4

[5] = no dilution, 15 μl on disk, 6.5 mm = 200 units
[6] = intravenous, first stage, one mouse per dose
[7] = intravenous, second stage, four mice per dose
[8] = maximum tolerated dose, Dose - 1 Mouse, first stage, one mouse per dose
[9] = maximum tolerated dose, Dose - 4 Mice, second stage, four mice per dose

## COC(=O)[C@@]12OC[C@@]34C1[C@@H](OC(=O)CC(O)(C(C)C)C(C)C)C(=O)O[C@@H]3C[C@H]1C(C)=C(O)C(=O)C[C@]1(C)[C@H]4[C@@H](O)[C@@H]2O (some centres unmarked) [15-O-(3′-hydroxy-3′-isopropyl-4′-methylpentanoyl)bruceolide]
[1]; dilution 1/10
  zone of inhibition, H-116: 1000 units and 900 units
[1]; dilution 1/1000
  zone of inhibition, H-116: 0 units
[1]; [5]
  zone of inhibition, H-116: >1000 units
L1210 (murine leukemia); dilution 1/10
  zone of inhibition, L1210: 550 units
L1210 (murine leukemia); dilution 1/100
  zone of inhibition, L1210: 200 units
L1210 (murine leukemia); dilution 1/400
  zone of inhibition, L1210: 0 units
L1210 (murine leukemia); [5]
  zone of inhibition, L1210: 1000 units
[2]; dose of either 1.5 or 0.75 mg/mouse, intravenous (FIG. 6)
  mice survived the duration of the experiment: 100%
[2]; [6]
  maximum tolerated dose, Dose - 1 Mouse: 3.2 mg/mouse
[2]; [7]
  maximum tolerated dose, Dose - 4 Mice: 1.5 mg/mouse
[2]; MTD, mice
  MTD: 60 to 65 mg/kg/day
[2]; [8]
  MTD: 109 mg/kg
[2]; [9]
  MTD: 60 mg/kg
[3]; 24 hours post administration, 2.25 mg/mouse intravenously (above the MTD)
  survival of mouse designated for analysis: did not survive
[3]; one hour post administration
  concentration in plasma: approximately 7 μg/mL
  concentration in tumor: approximately 7 μg/mL
[3]; six hours post administration
  concentration in plasma: 100 ng/mL
  concentration in tumor: 800 ng/mL
[3]; two hours post administration
  concentration in plasma: 1500 ng/mL
  concentration in tumor: approximately 4 μg/mL
[4]; dilution 1/1000
  zone of inhibition, H-125 M: 0 units
[4]; [5]
  zone of inhibition, H-125 M: >1000 units

## COC(=O)[C@@]12OC[C@@]34C1[C@@H](OC(=O)C=C(C(C)C)C(C)C)C(=O)O[C@@H]3C[C@H]1C(C)=C(O)C(=O)C[C@]1(C)[C@H]4[C@@H](O)[C@@H]2O (some centres unmarked) [15-O-(3′-isopropyl-4′-methyl-2′-pentenoyl)-bruceolide]
[1]; dilution 1/10
  zone of inhibition, H-116: 750 units
[1]; dilution 1/100
  zone of inhibition, H-116: 100 units
[1]; dilution 1/1000
  zone of inhibition, H-116: 0 units
[1]; [5]
  zone of inhibition, H-116: >1000 units
L1210 (murine leukemia); dilution 1/10
  zone of inhibition, L1210: 1000 units
L1210 (murine leukemia); dilution 1/100
  zone of inhibition, L1210: 650 units and 600 units
L1210 (murine leukemia); dilution 1/1000
  zone of inhibition, L1210: 150 units
L1210 (murine leukemia); [5]
  zone of inhibition, L1210: >1000 units
[2]; dose of 0.1, 0.075, 0.05, or 0.025 mg/mouse, intravenous
  mice survived the duration of the experiment: 100%
[2]; [6]
  maximum tolerated dose, Dose - 1 Mouse: 0.05 mg/mouse
[2]; [7]
  maximum tolerated dose, Dose - 4 Mice: 0.25 mg/mouse
[2]; [8]
  MTD at 30 days: 2.9 mg/kg
[2]; [9]
  MTD at 30 days: 4 mg/kg
[3]; SCID, in vivo, 0.5 hour time point, intravenous (FIG. 8: 0.075 mg/mouse)
  concentration at 0.5 h: 100 ng/mL
[3]; SCID, in vivo, 1 hour time point, intravenous (FIG. 8: 0.075 mg/mouse), below sensitivity of the assay
  concentration at 1 h: < 50 ng/mL
[3]; all time points, 0.075 mg/mouse intravenously, detection limit 0.05 μg/mL
  level in the tumor, FIG. 8: below the detection limit
[3]; entire 24 hour sampling period, intravenous (FIG. 8: 0.075 mg/mouse)
  concentration in tumor samples: below the sensitivity level of the assay
[3]; time points 1 to 24 hours, 0.075 mg/mouse intravenously, below detection limit
  concentration in vivo (plasma), FIG. 8: < 50 ng/mL
[4]; dilution 1/10
  zone of inhibition, H-125 M: 1100 units
[4]; dilution 1/100
  zone of inhibition, H-125 M: 500 units
[4]; dilution 1/1000
  zone of inhibition, H-125 M: 100 units
[4]; [5]
  zone of inhibition, H-125 M: >1000 units
